For orientation: melting point means the temperature of the solid-liquid transition.

Compound `Br.Cn1c(C(=O)N2CCN(Cc3ccccc3)CC2)cc2cc(Oc3ccc(NCc4ccc(Cl)c(Cl)c4)cn3)ccc21` [Example 334, (4-Benzylpiperazin-1-yl)(5-{5-[(3,4-dichlorophenyl)methylamino]-pyridin-2-yloxy}-1-methyl-1H-indol-2-yl)methanone hydrobromide] gave a melting point of 209 to 217 °C. `Br.CN(c1ccc(C(F)(F)F)cc1)c1ccc(Oc2ccc3c(c2)cc(C(=O)N2CCN(Cc4ccc5c(c4)OCO5)CC2)n3C)nc1` [Example 335, (4-Benzo[1,3]dioxol-5-ylmethylpiperazin-1-yl)(1-methyl-5-{5-[methyl(4-trifluoromethylphenyl)amino]pyridin-2-yloxy}-1H-indol-2-yl)methanone hydrobromide]: the melting point is 211 to 215 °C.

Regarding `Br.CN(c1ccc(C(F)(F)F)cc1)c1ccc(Oc2ccc3c(c2)cc(C(=O)N2CCN(Cc4ccccc4)CC2)n3C)nc1` [Example 336, (4-Benzylpiperazin-1-yl)(1-methyl-5-{5-[methyl(4-trifluoromethyl-phenyl)amino]pyridin-2-yloxyl}-1H-indol-2-yl)methanone hydrobromide], the melting point was in the range of 212 to 218 °C. With `Br.CN(c1ccc(C(F)(F)F)cc1)c1ccc(Oc2ccc3c(c2)cc(C(=O)N2CCN(Cc4ccncc4)CC2)n3C)nc1` [Example 337, (1-Methyl-5-{5-[methyl(4-trifluoromethylphenyl)amino]pyridin-2-yloxy}-1H-indol-2-yl)(4-pyridin-4-ylmethylpiperazin-1-yl)-methanone hydrobromide] the figure was 167 to 174 °C. Next, `Br.CN(C(=O)c1ccc(C(F)(F)F)cc1)c1ccc(Oc2ccc3c(c2)cc(C(=O)N2CCN(Cc4ccc(C#N)cc4)CC2)n3C)nc1` [Example 339, N-(6-{2-[4-(4-Cyanobenzyl)piperazine-1-carbonyl]-1-methyl-1H-indol-5-yloxy}pyridin-3-yl)-N-methyl-4-trifluoromethylbenzamide hydrobromide]: 251 to 255 °C (dec.). With `Br.CCOc1ccc(CN2CCN(C(=O)c3cc4cc(Oc5ccc(NC(=O)c6ccc(C(F)(F)F)cc6)cn5)ccc4n3C)CC2)cc1OCC` [Example 340, N-(6-{2-[4-(3,4-Diethoxybenzyl)piperazine-1-carbonyl]-1-methyl-1H-indol-5-yloxy}pyridin-3-yl)-4-trifluoromethylbenzamide hydrobromide] the figure was 196 to 198 °C. Compound `Br.CN(C(=O)c1ccc(C(F)(F)F)cc1)c1ccc(Oc2ccc3c(c2)cc(C(=O)N2CCN(Cc4ccc(OC(F)(F)F)cc4)CC2)n3C)nc1` [Example 343, N-Methyl-N-(6-{1-methyl-2-[4-(4-trifluoromethoxybenzyl)-piperazine-1-carbonyl]-1H-indol-5-yloxy}pyridin-3-yl)-4-tri-fluoromethylbenzamide hydrobromide] had a melting point of 213 to 216 °C. Next, `Br.CCn1c(C(=O)N2CCN(Cc3ccc4c(c3)OCO4)CC2)cc2cc(Oc3ccc(N(C)C(=O)c4ccc(C(F)(F)F)cc4)cn3)ccc21` [Example 344, N-{6-[2-(4-Benzo[1,3]dioxol-5-ylmethylpiperazine-1-carbonyl)-1-ethyl-1H-indol-5-yloxy]pyridin-3-yl}-N-methyl-4-trifluoromethyl-benzamide hydrobromide]: 179 to 183 °C; `Br.COc1ccc(CN2CCN(C(=O)c3cc4cc(Oc5ccc(N(C)C(=O)c6ccc(C(F)(F)F)cc6)cn5)ccc4n3C)CC2)cc1OC` [Example 345, N-(6-{2-[4-(3,4-Dimethoxybenzyl)piperazine-1-carbonyl]-1-methyl-1H-indol-5-yloxy}pyridin-3-yl)-N-methyl-4-trifluoromethyl-benzamide hydrobromide]: 175 to 177 °C; `COc1ccc(CN2CCN(C(=O)c3cc4cc(Oc5ccc(N(C)C(=O)c6ccc(Cl)c(Cl)c6)cn5)ccc4n3C)CC2)cc1.O=C(O)/C=C\C(=O)O` [Example 347, 3,4-Dichloro-N-(6-{2-[4-(4-methoxybenzyl)piperazine-1-carbonyl]-1-methyl-1H-indol-5-yloxy}pyridin-3-yl)-N-methylbenzamide maleate]: 171 to 172 °C. `COc1ccc(CN2CCN(C(=O)c3cc4cc(Oc5ccc(NC(=O)c6ccc(C(F)(F)F)cc6)cn5)ccc4n3C)CC2)cn1.O=C(O)/C=C\C(=O)O` [Example 348, N-(6-{2-[4-(6-Methoxypyridin-3-ylmethyl)piperazine-1-carbonyl]-1-methyl-1H-indol-5-yloxy}pyridin-3-yl)-4-trifluoromethylbenzamide maleate] showed a melting point of 135 to 138 °C. Turning to `Br.COc1ccc(CN2CCN(C(=O)c3cc4cc(Oc5ccc(NC(=O)c6ccc(Cl)c(Cl)c6)cn5)ccc4n3C)CC2)cc1` [Example 349, 3,4-Dichloro-N-(6-{2-[4-(4-methoxybenzyl)piperazine-1-carbonyl]-1-methyl-1H-indol-5-yloxy}pyridin-3-yl)benzamide hydrobromide], the melting point is 244 to 247 °C (dec.).

In turn, `Br.COc1ccc(CN2CCN(C(=O)c3cc4cc(Oc5ccc(NC(=O)c6ccc(C(F)(F)F)cc6)cn5)ccc4n3C)CC2)cc1OC` [Example 350, N-(6-{2-[4-(3,4-Dimethoxybenzyl)piperazine-1-carbonyl]-1-methyl-1H-indol-5-yloxy}pyridin-3-yl)-4-trifluoromethylbenzamide hydrobromide] registered a melting point of 233 to 235 °C. Next, `Br.COc1cccc(CN2CCN(C(=O)c3cc4cc(Oc5ccc(N(C)C(=O)c6ccc(C(F)(F)F)cc6)cn5)ccc4n3C)CC2)c1` [Example 351, N-(6-{2-[4-(3-Methoxybenzyl)piperazine-1-carbonyl]-1-methyl-1H-indol-5-yloxy}pyridin-3-yl)-N-methyl-4-trifluoromethylbenzamide hydrobromide]: 217 to 219 °C. With `Br.COc1cccc(CN2CCN(C(=O)c3cc4cc(Oc5ccc(NC(=O)c6ccc(C(F)(F)F)cc6)cn5)ccc4n3C)CC2)c1` [Example 353, N-(6-{2-[4-(3-Methoxybenzyl)piperazine-1-carbonyl]-1-methyl-1H-indol-5-yloxy}pyridin-3-yl)-4-trifluoromethylbenzamide hydrobromide] the figure was 231 to 233 °C; with `COc1ccccc1CN1CCN(C(=O)c2cc3cc(Oc4ccc(NC(=O)c5ccc(C(F)(F)F)cc5)cn4)ccc3n2C)CC1.O=C(O)C(=O)O` [Example 354, N-(6-{2-[4-(2-Methoxybenzyl)piperazine-1-carbonyl]-1-methyl-1H-indol-5-yloxy}pyridin-3-yl)-4-trifluoromethylbenzamide oxalate], 142 to 144 °C; with `COc1ccccc1CN1CCN(C(=O)c2cc3cc(Oc4ccc(N(C)C(=O)c5ccc(C(F)(F)F)cc5)cn4)ccc3n2C)CC1.O=C(O)C(=O)O` [Example 355, N-(6-{2-[4-(2-Methoxybenzyl)piperazine-1-carbonyl]-1-methyl-1H-indol-5-yloxy}pyridin-3-yl)-N-methyl-4-trifluoromethylbenzamide oxalate], 140 to 142 °C. Next, `COc1ccccc1/C=C/CN1CCN(C(=O)c2cc3cc(Oc4ccc(NC(=O)c5ccc(C(F)(F)F)cc5)cn4)ccc3n2C)CC1.CS(=O)(=O)O` [Example 358, N-[6-(2-{4-[(E)-3-(2-Methoxyphenyl)allyl]piperazine-1-carbonyl}-1-methyl-1H-indol-5-yloxy)pyridin-3-yl]-4-trifluoromethyl-benzamide methanesulfonate]: 268 to 271 °C (dec.); `Br.CCOc1ccc(CN2CCN(C(=O)c3cc4cc(Oc5ccc(NC(=O)c6ccc(Cl)c(Cl)c6)cn5)ccc4n3C)CC2)cc1` [Example 360, 3,4-Dichloro-N-(6-{2-[4-(4-ethoxybenzyl)piperazine-1-carbonyl]-1-methyl-1H-indol-5-yloxy}pyridin-3-yl)benzamide hydrobromide]: 235 to 238 °C (dec.). `CCOc1ccc(CN2CCN(C(=O)c3cc4cc(Oc5ccc(N(C)C(=O)c6ccc(Cl)c(Cl)c6)cn5)ccc4n3C)CC2)cc1.CS(=O)(=O)O` [Example 361, 3,4-Dichloro-N-(6-{2-[4-(4-ethoxybenzyl)piperazine-1-carbonyl]-1-methyl-1H-indol-5-yloxy}pyridin-3-yl)-N-methylbenzamide methanesulfonate] came in with a melting point of 168 to 170 °C. With `Br.Br.Cc1cc(Oc2ccc3c(c2)cc(C(=O)N2CCN(Cc4ccncc4)CC2)n3C)ncc1NC(=O)c1ccc(C(F)(F)F)cc1` [Example 362, N-{4-Methyl-6-[1-methyl-2-(4-pyridin-4-ylmethylpiperazine-1-carbonyl)-1H-indol-5-yloxy]pyridin-3-yl}-4-trifluoromethyl-benzamide dihydrobromide] the figure was 228 to 232 °C (dec.).

Compound `Br.CCOc1ccc(CN2CCN(C(=O)c3cc4cc(Oc5ccc(NC(=O)c6ccc(C(F)(F)F)cc6)cn5)ccc4n3C)CC2)cc1` [Example 363, N-(6-{2-[4-(4-Ethoxybenzyl)piperazine-1-carbonyl]-1-methyl-1H-indol-5-yloxy}pyridin-3-yl)-4-trifluoromethylbenzamide hydrobromide] returned a melting point of 231 to 234 °C. Next, `Br.CCOc1ccc(CN2CCN(C(=O)c3cc4cc(Oc5cc(C)c(NC(=O)c6ccc(Cl)c(Cl)c6)cn5)ccc4n3C)CC2)cc1` [Example 364, 3,4-Dichloro-N-(6-{2-[4-(4-ethoxybenzyl)piperazine-1-carbonyl]-1-methyl-1H-indol-5-yloxy}-4-methylpyridin-3-yl)benzamide hydrobromide]: 197 to 199 °C. `Br.CCOc1ccc(CN2CCN(C(=O)c3cc4cc(Oc5cc(C)c(N(C)C(=O)c6ccc(C(F)(F)F)cc6)cn5)ccc4n3C)CC2)cc1` [Example 365, N-(6-{2-[4-(4-Ethoxybenzyl)piperazine-1-carbonyl]-1-methyl-1H-indol-5-yloxy}-4-methylpyridin-3-yl)-N-methyl-4-trifluoromethyl-benzamide hydrobromide] yielded a melting point of 163 to 166 °C. Next, `Br.CCOc1ccc(CN2CCN(C(=O)c3cc4cc(Oc5cc(C)c(N(C)C(=O)c6ccc(Cl)c(Cl)c6)cn5)ccc4n3C)CC2)cc1` [Example 366, 3,4-Dichloro-N-(6-{2-[4-(4-ethoxybenzyl)piperazine-1-carbonyl]-1-methyl-1H-indol-5-yloxy}-4-methylpyridin-3-yl)-N-methylbenzamide hydrobromide]: 201 to 204 °C.

The values are drawn from patent US8551999B2, “Heterocyclic compound and pharmaceutical composition thereof” (Otsuka Pharmaceutical Co., Ltd., priority 2007, dated 2013).
